{"source": "patent US11426422B2", "about": "“SHP2 inhibitors and methods of use thereof” (Research Development Foundation, priority 2018, dated 2022)", "key": {"[1]": {"assay": "body weight of HFD-fed mice", "type": "in vivo", "conditions": "60 mg/kg daily oral gavage; 7 days post administration", "method": "FIGS. 8A-B. Effects of the SHP2 inhibitor on body weight and insulin signaling in HFD-WT mice. […] Mean±SD. (FIG. 8B) Quantification of the relative band intensities in FIG. 3E. Mean±SD; n=3 independent experiments.\nThe IR staining at the PM in liver sections from mice fed with HFD was weak, and insulin stimulation further reduced it and caused IR endocytosis (FIGS. 3C and D).\nAll animals were maintained in a specific antigen-free barrier facility with 12 h light/dark cycles (6 AM on and 6 PM off). Mice were fed a standard rodent chow (2016 Teklad Global 16% protein rodent diet, Harlan Laboratories). For inducing insulin resistance, C57BL/6J (Stock No. 000664, Jackson laboratory) were fed a high-fat (60%) diet (OpenSource Diets, Cat. No. D12492). For in vivo pharmacological assays, 6-8-weeks-old male mice were fed high-fat diet (HFD) for 5 weeks. Two days before drug administration, mice were switched to normal chow. […] For glucose tolerance test, mice were fasted for 14 h, and their blood glucose levels (T=0) were measured with tail bleeding using a glucometer (AlphaTRAK®). […] Blood glucose levels were measured at 15, 30, 60, and 120 min after glucose injection. For insulin tolerance test, mice fasted for 4 h were injected intraperitoneally with recombinant human insulin (Eli Lilly) at 1 U/kg body weight, and their blood glucose levels were measured at 0, 15, 30 and 60 min after injection."}, "[2]": {"system": "primary hepatocytes", "assay": "insulin signaling in primary hepatocytes (quantitative Western blot)", "type": "cell-based, mice", "conditions": "10 μM for 2 h, then 100 nM insulin", "method": "(FIG. 3A) Glucose tolerance test in 14 h fasted male mice fed a HFD for 5 weeks. […] At 1 day after drug treatment, glucose tolerance test was performed. Mean±SEM. (FIG. 3B) Insulin tolerance test of mice treated as described in FIG. 3A. Mean±SEM. […] The liver sections were stained with anti-IR (red) and DAPI (blue). Scale bars, 5 μm. (FIG. 3D) Quantification of the ratios of PM and IC IR signals of the livers in C (mean±SD; *p<0.0001). […] Cell lysates were blotted with the indicated antibodies.\nTo examine the effect of SHP2 inhibition on insulin signaling in freshly isolated primary hepatocytes, the activating phosphorylation of IR (pY1189/1190), AKT (pT308), and ERK1/2 (pT202/Y204, pERK1/2) in the hepatocytes was monitored (FIG. 3E and FIG. 8B).\nPrimary hepatocytes were isolated from 2-month-old female mice with a standard two-step collagenase perfusion procedure. Cells were plated on collagen-coated dishes and incubated in attachment medium (Williams' E Medium supplemented with 5% (v/v) FBS, 10 nM insulin, 10 nM dexamethasone, and 1% (v/v) penicillin/streptomycin). After 2-4 h, the medium was changed to low-glucose DMEM supplemented with 5% (v/v) FBS, 10 nM dexamethasone, 10 nM insulin, 100 nM triiodothyronine, and 1% (v/v) penicillin/streptomycin.\nCells were incubated with the cell lysis buffer [50 mM HEPES (pH 7.4), 150 mM NaCl, 10% (v/v) Glycerol, 1% (v/v) Triton X-100, 1 mM EDTA, 100 mM sodium fluoride, 2 mM sodium orthovanadate, 20 mM sodium pyrophosphate, 0.5 mM dithiothreitol (DTT), 2 mM phenylmethylsulfonyl fluoride (PMSF)] supplemented with protease inhibitors (Roche®) and PhosSTOP™ (Roche®) on ice for 1 h. The cell lysates were cleared by centrifugation and incubated with antibody-conjugated beads. The beads were washed, and the bound proteins were eluted with the SDS sample buffer and analyzed by SDS-PAGE and Western blotting. For quantitative Western blots, anti-rabbit immunoglobulin G (IgG) (H+L) (Dylight 800 or 680 conjugates) and anti-mouse IgG (H+L) (Dylight 800 or 680 conjugates) (Cell Signaling) were used as secondary antibodies. […]"}}}
{"molecule": "CC1(N)CCN(c2cnc(-c3cccc(Cl)c3Cl)c(N)n2)CC1", "note": "[SHP099]", "values": [{"measurement": "body weight", "setting": "[1]", "value": "did not change the body weight"}, {"measurement": "activation of the MAPK pathway by insulin (pERK1/2)", "setting": "[2]", "value": "inhibited the activation of the MAPK pathway by insulin"}, {"measurement": "insulin-triggered activating phosphorylation of AKT (pT308)", "setting": "[2]", "value": "significantly increased and prolonged"}, {"measurement": "insulin-triggered activating phosphorylation of IR (pY1189/1190)", "setting": "[2]", "value": "significantly increased and prolonged"}]}
